The target of assay [1] is T1, S1P1 (Homo sapiens, UniProt P21453). In words: 35S-GTPγS binding assay, S1P1 membranes. The assay is classed as biochemical. Conditions: membranes from CHO cells expressing S1P1; read-out: S1P1/GTPG EC50. The protocol:
(§1) Membranes Preparation: Membranes were prepared from CHO cells expressing S1P1 or S1P3 for use in ligand and 35S-GTPγS binding studies. Cells were suspended in 50 mM TRIS, pH 7.4, 2 mM EDTA, 250 mM Sucrose (buffer A) and 1× Complete protease inhibitor cocktail (Roche), and disrupted at 4° C. by N2 decompression using a cell disruption bomb (Parr Instrument). Following centrifugation at 1000 RPM for 10 min at 4° C., the supernatant was diluted (2×) in buffer A and centrifuged again at 19000 RPM for 75 min at 4° C. The pellet was then suspended in 10 mM HEPES, pH 7.4, 1 mM EDTA, 250 mM Sucrose (Buffer B), and 1× Complete EDTA-free protease inhibitor cocktail and homogenized using a potter. Membranes were flash frozen in liquid N2 and stored at −80° C.
(§2) Measurements of 35S-GTPγS Binding: Membranes (1 to 10 μg protein) prepared as described above, were incubated in 96-well Scintiplates (PerkinElmer) with test compounds diluted in DMSO, in 140 μl of 20 mM HEPES, pH 7.4, 10 mM MgCl2, 2 μg/well Saponin, 0.2% fatty acid free BSA (Assay buffer), 125 mM NaCl and 1.5 μM GDP. The assay was initiated with the addition of 60 μl of 1.5 nM [35S]-GTPγS (1100 Ci/mmol; GE Healthcare) in assay buffer. After 60 min incubation at 30° C. on a shaker, plates were centrifuged for 10 min at 2000 RPM. Supernatant was discarded and membrane bound radioactivity was measured on a PerkinElmer 1450 MicroBeta counter. Triplicate samples were averaged and expressed as % response relative to S1P activation in absence of compound (n=2).
The “potency” or the “activity” of the compounds is determined by the EC50 values as evaluated in the above described 35S-GTPγS binding assay.
(GTPγS resists hydrolysis and so accumulates on activated G proteins.)

For assay [2], the target named is T1, S1P1. Description: Receptor binding assay, [33P]sphingosine 1-phosphate competition, S1P1. Put shortly:
(§3)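 SPA competition binding on CHO-cell membranes with 30 pM (S1P1) or 15 pM (S1P3) [33P]S1P in 50 mM HEPES pH 7.5, 5 mM MgCl2, 100 mM NaCl, 0.4% fatty acid-free BSA, 60 min at RT. Percent inhibition normalised to total binding and to non-specific binding (1000-fold unlabelled S1P), triplicates averaged.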

In assay [3] the target is T2, S1P3 (Homo sapiens, UniProt Q99500). In words: 35S-GTPγS binding assay, S1P3 membranes. The format is biochemical. The conditions noted are these: membranes from CHO cells expressing S1P3; read-out: S1P3/GTPG EC50. The procedure:
as §1, §2

The target of assay [4] is T2, S1P3. Description: Receptor binding assay, [33P]sphingosine 1-phosphate competition, S1P3. Put shortly:
as §3

Assay [5] has as its target T3, human S1P1 Receptor fused to the green fluorescent protein (EGFP) (Homo sapiens, UniProt P21453).
T3 construct: host or cells: U2OS (human bone osteosarcoma epithelial cells), CMV promoter, geneticin selection
Description: Internalization of S1P1 in S1P1-U2OS cells by cell imaging analysis. The format is cell-based. The conditions noted are these: 1 hour incubation, 384-well. Put shortly: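 Human U2OS osteosarcoma cells stably expressed human S1P1-EGFP. After 2 h serum starvation in 0.1% fatty-acid-free BSA medium, cells were treated with compounds for 1 h at 37 °C. Cells were then fixed and Hoechst-stained, and internalization was imaged as spots (receptor) per nucleus.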

The mark [6] stands for this setting: 96 well-plate, read-out: S1P1 binding IC50 (M) (96 well-plate).
The mark [7] stands for this setting: 384 well-plate, read-out: S1P1 binding IC50 (M) (384 well-plate).
Setting [8] is: 96 well-plate, read-out: S1P3 binding IC50 (M) (96 well-plate).

pEC50: −log10 of the molar value. Structures can show the parent of a compound that is named as a salt. Where two headings read alike, the source gives them in different places.

As usually defined, the IC50 is the concentration needed to halve the response being measured.

T3 sequence (P21453 with tags, fused parts or gaps): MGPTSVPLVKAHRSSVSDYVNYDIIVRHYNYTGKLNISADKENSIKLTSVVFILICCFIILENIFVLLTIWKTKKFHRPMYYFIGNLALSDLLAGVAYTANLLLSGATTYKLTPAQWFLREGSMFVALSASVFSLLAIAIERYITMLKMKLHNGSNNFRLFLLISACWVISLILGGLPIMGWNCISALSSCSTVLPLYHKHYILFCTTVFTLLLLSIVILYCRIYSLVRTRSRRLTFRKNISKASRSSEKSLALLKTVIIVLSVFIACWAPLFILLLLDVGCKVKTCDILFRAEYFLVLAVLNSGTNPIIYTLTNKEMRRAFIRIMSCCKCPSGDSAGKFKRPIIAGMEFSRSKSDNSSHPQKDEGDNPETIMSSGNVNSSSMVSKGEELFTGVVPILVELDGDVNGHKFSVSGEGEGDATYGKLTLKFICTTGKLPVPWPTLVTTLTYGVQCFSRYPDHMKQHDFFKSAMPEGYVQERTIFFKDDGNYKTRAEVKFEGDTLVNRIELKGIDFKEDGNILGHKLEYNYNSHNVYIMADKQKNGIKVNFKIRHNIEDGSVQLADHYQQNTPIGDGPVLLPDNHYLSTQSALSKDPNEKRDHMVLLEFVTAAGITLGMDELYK
T1 sequence (P21453 whole entry, species assumed): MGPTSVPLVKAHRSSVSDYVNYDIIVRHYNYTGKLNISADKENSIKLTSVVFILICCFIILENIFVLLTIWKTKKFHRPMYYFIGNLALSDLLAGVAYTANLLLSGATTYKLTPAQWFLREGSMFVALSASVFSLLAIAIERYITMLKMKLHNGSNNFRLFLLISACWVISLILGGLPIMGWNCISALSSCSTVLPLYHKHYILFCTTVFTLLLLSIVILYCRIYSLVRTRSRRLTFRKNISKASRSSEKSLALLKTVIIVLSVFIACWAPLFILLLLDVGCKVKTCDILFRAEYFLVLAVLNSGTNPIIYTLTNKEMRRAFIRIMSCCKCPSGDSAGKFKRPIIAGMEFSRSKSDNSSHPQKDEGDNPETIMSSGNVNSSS
T2 sequence (Q99500 whole entry, species assumed): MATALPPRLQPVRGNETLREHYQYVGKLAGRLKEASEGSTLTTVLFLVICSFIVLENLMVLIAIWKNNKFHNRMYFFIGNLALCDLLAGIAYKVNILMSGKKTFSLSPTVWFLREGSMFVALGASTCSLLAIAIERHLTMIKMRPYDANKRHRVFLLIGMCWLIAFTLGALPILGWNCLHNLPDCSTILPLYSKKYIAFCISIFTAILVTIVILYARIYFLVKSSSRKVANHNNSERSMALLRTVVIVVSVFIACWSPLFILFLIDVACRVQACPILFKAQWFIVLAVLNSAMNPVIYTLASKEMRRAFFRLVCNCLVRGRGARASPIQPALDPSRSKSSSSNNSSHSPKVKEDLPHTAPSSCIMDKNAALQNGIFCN

For the molecule `COCCNc1ncc(-c2noc(-c3ccc(-c4ccccc4C)c(COC)c3)n2)cc1Cl` [Example 34, 3-chloro-N-(2-methoxyethyl)-5-{5-[2-(methoxymethyl)-2′-methylbiphenyl-4-yl]-1,2,4-oxadiazol-3-yl}pyridin-2-amine], the pEC50 at S1P1 [1] is 7.93. Besides, on S1P1 [2] (setting [6]), the half-inhibitory concentration (IC50) is 5.26e-09 M.
With `CCC1CCCCN1c1ccc(-c2nc(-c3ccc(N)nc3)no2)cc1COC` (stereo not shown) [Example 27, 5-{5-[4-(2-ethylpiperidin-1-yl)-3-(methoxymethyl)phenyl]-1,2,4-oxadiazol-3-yl}pyridin-2-amine], the pEC50 at S1P1 [1] is 7.87; on S1P3 [3] it was 5.78. Further, the IC50 at S1P1 [2] (setting [6]) stood at 5.7e-09 M.
Take `COCc1cc(-c2nc(-c3ccnc(NCCC(=O)O)c3)no2)ccc1-c1ccccc1C` [Example 7, N-(4-{5-[2-(methoxymethyl)-2′-methylbiphenyl-4-yl]-1,2,4-oxadiazol-3-yl}pyridin-2-yl)-beta-alanine, hydrochloride salt]: the pEC50 is 8.29 on S1P1 [1] and 6.93 at S1P3 [3]. For the same molecule, on S1P1 [2] (setting [6]), the IC50 is 9.09e-09 M.
As for `COCc1cc(-c2nc(-c3ccc(N)nc3)no2)ccc1N1CCCC1C` (stereo not shown) [Example 33, 5-{5-[3-(methoxymethyl)-4-(2-methylpyrrolidin-1-yl)phenyl]-1,2,4-oxadiazol-3-yl}pyridin-2-amine], the pEC50 on S1P1 [1] is 8.13. Also, at S1P1 [2] (setting [6]), the IC50 was 5.37e-08 M.
As for `COCc1cc(-c2nc(-c3ccc(O)nc3)no2)ccc1-c1ccccc1C` [Example 21, 5-{5-[2-(methoxymethyl)-2′-methylbiphenyl-4-yl]-1,2,4-oxadiazol-3-yl}pyridin-2-ol], the pEC50 at S1P1 [1] was 8.40; on S1P3 [3] it was 6.37. The IC50 at S1P1 [2] (setting [6]) turned out to be 4.76e-08 M.
The corresponding values for `COCc1cc(-c2nc(-c3ccc(N)nc3)no2)ccc1N1CCCCC1C` (stereo not shown) [Example 9, 5-{5-[3-(methoxymethyl)-4-(2-methylpiperidin-1-yl)phenyl]-1,2,4-oxadiazol-3-yl}pyridin-2-amine] are 8.75, 5.58 and 4.29e-09 M.
In the same order, the values of `COCc1cc(-c2nc(-c3ccc(NCCC(=O)O)nc3)no2)ccc1-c1ccccc1C` [Example 2, N-(5-{5-[2-(methoxymethyl)-2′-methylbiphenyl-4-yl]-1,2,4-oxadiazol-3-yl}pyridin-2-yl)-beta-alanine, hydrochloride salt] are 7.68, 5.72 and 4.83e-09 M.
On to `CNc1ccc(-c2noc(-c3ccc(-c4ccccc4C)c(COC)c3)n2)cn1` [Example 29, 5-{5-[2-(methoxymethyl)-2′-methylbiphenyl-4-yl]-1,2,4-oxadiazol-3-yl}-N-methylpyridin-2-amine], for which the pEC50 at S1P1 [1] was 7.36.
As to `COCc1cc(-c2nc(-c3ccc(NCCO)nc3)no2)ccc1-c1ccccc1C` [Example 28, 2-[(5-{5-[2-(methoxymethyl)-2′-methylbiphenyl-4-yl]-1,2,4-oxadiazol-3-yl}pyridin-2-yl)amino]ethanol], on S1P1 [1], the pEC50 was 8.28. For the same molecule, the IC50 on S1P1 [2] (setting [6]) was 4.54e-09 M.
In the same order, the values of `CC1CCCCN1c1ccc(-c2nc(-c3ccc(N)nc3)no2)cc1C(F)(F)F` (stereo not shown) [Example 20, 5-{5-[4-(2-methylpiperidin-1-yl)-3-(trifluoromethyl)phenyl]-1,2,4-oxadiazol-3-yl}pyridin-2-amine] are 7.83 and 1.03e-08 M.
Take `COCc1cc(-c2nc(-c3ccnc(NCC(=O)OC(C)(C)C)c3)no2)ccc1-c1ccccc1C` [Example 10, tert-butyl N-(4-{5-[2-(methoxymethyl)-2′-methylbiphenyl-4-yl]-1,2,4-oxadiazol-3-yl}pyridin-2-yl)glycinate]: the pEC50 on S1P1 [1] is 6.85.
`COCc1cc(-c2nc(-c3ccc(N)nc3)no2)ccc1-c1ccccc1Cl` [Example 32, 5-{5-[2′-chloro-2-(methoxymethyl)biphenyl-4-yl]-1,2,4-oxadiazol-3-yl}pyridin-2-amine]: the pEC50 on S1P1 [1] was 8.53; in assay [5], 7.41. In addition, the IC50 at S1P1 [2] (setting [6]) is 1.39e-09 M; on S1P1 [2] (setting [7]) it was 2.12e-08 M; at S1P3 [4] (setting [8]) it was 9.4e-06 M.
In the same order, the values of `COCc1cc(-c2nc(-c3cnc(N)c(C)c3)no2)ccc1-c1ccccc1C` [Example 18, 5-{5-[2-(methoxymethyl)-2′-methylbiphenyl-4-yl]-1,2,4-oxadiazol-3-yl}-3-methylpyridin-2-amine, hydrochloride salt] are 8.31, 7.31, 4.33e-09 M, 1.52e-08 M and 2.21e-05 M.
Take `COCc1cc(-c2nc(-c3ccc(OC)nc3)no2)ccc1-c1ccccc1C` [Example 23, 2-methoxy-5-{5-[2-(methoxymethyl)-2′-methylbiphenyl-4-yl]-1,2,4-oxadiazol-3-yl}pyridine]: the pEC50 at S1P1 [1] is 7.13.
The same measure, in the same setting: the result for `COCc1cc(-c2nc(-c3ccc(NCCCC(=O)O)nc3)no2)ccc1-c1ccccc1C` [Example 8, 4-[(5-{5-[2-(methoxymethyl)-2′-methylbiphenyl-4-yl]-1,2,4-oxadiazol-3-yl}pyridin-2-yl)amino]butanoic acid, hydrochloride salt] reads 8.00.
Turning to `CCc1ccccc1-c1ccc(-c2nc(-c3ccc(N)nc3)no2)cc1COC` [Example 12, 5-{5-[2′-ethyl-2-(methoxymethyl)biphenyl-4-yl]-1,2,4-oxadiazol-3-yl}pyridin-2-amine, hydrochloride salt], the pEC50 on S1P1 [1] was 8.79. The IC50 at S1P1 [2] (setting [6]) turned out to be 8.84e-09 M.
For the molecule `COCc1cc(-c2nc(-c3cnc(N)nc3)no2)ccc1-c1ccccc1C` [Example 17, 5-{5-[2-(methoxymethyl)-2′-methylbiphenyl-4-yl]-1,2,4-oxadiazol-3-yl}pyrimidin-2-amine], the pEC50 (on S1P1 [1]; in assay [5]) was 6.82 throughout. Also, on S1P1 [2] (setting [7]), the half-maximal inhibitory concentration (IC50) was determined as 2.92e-08 M.
With `COCc1cc(-c2nc(-c3ccnc(N(C)C)c3)no2)ccc1-c1ccccc1C` [Example 6, 4-{5-[2-(methoxymethyl)-2′-methylbiphenyl-4-yl]-1,2,4-oxadiazol-3-yl}-N,N-dimethylpyridin-2-amine, hydrochloride salt], the pEC50 at S1P1 [1] was 6.84.
Take `COCc1cc(-c2nc(-c3ccc(O)nc3)no2)ccc1N1CCCCC1C` (stereo not shown) [Example 22, 5-{5-[3-(methoxymethyl)-4-(2-methylpiperidin-1-yl)phenyl]-1,2,4-oxadiazol-3-yl}pyridin-2-ol]: the pEC50 at S1P1 [1] is 8.28; on S1P3 [3], 6.82. Also, on S1P1 [2] (setting [6]), the 50% inhibitory concentration (IC50) came to 1.3e-09 M.
Turning to `COCc1cc(-c2nc(-c3cnc(NCCC(=O)OC(C)(C)C)c(Cl)c3)no2)ccc1-c1ccccc1C` [Example 35, tert-butyl N-(3-chloro-5-{5-[2-(methoxymethyl)-2′-methylbiphenyl-4-yl]-1,2,4-oxadiazol-3-yl}pyridin-2-yl)-beta-alaninate], the pEC50 on S1P1 [1] was 8.02.
In the case of `COCc1cc(-c2nc(-c3ccnc(NCC(=O)O)c3)no2)ccc1-c1ccccc1C` [Example 11, N-(4-{5-[2-(methoxymethyl)-2′-methylbiphenyl-4-yl]-1,2,4-oxadiazol-3-yl}pyridin-2-yl)glycine, hydrochloride salt], the pEC50 was 7.65 at S1P1 [1] and 6.61 in assay [5]. The half-maximal inhibitory concentration (IC50) on S1P1 [2] (setting [7]) is 6.42e-08 M; on S1P3 [4] (384 well-plate, read-out: S1P3 binding IC50 (M) (384 well-plate)), 2.97e-06 M.
For the molecule `COCc1cc(-c2nc(-c3ccc(N(C)C)nc3)no2)ccc1-c1ccccc1C` [Example 30, 5-{5-[2-(methoxymethyl)-2′-methylbiphenyl-4-yl]-1,2,4-oxadiazol-3-yl}-N,N-dimethylpyridin-2-amine], the pEC50 at S1P1 [1] was 6.16.

For the origin of these results see patent US20110306636A1, “OXAZOLE PYRIDINE DERIVATIVES USEFUL AS S1P1 RECEPTOR AGONISTS” (Merck Serono SA, priority 2009, published 2011).
